Data taken from patent US9062071B2, “Substituted piperidines as HDM2 inhibitors” (Merck Sharp & Dohme Corp, priority 2011, dated 2015).

Target: HDM2 protein (Homo sapiens, UniProt Q00987)
Experiment: fluorescence polarization screening assay (FP IC50)
Assay type: binding
Conditions: class symbols
Protocol: The compounds were evaluated to determine activity at the HDM2 protein by known methods such as the fluorescence polarization screening assay that measures the inhibitory concentration that achieves 50% of maximal activity (FP IC50) and the dissociation constant for inhibitor binding (FP Ki). [Zhang et al., J. Analytical Biochemistry 331: 138-146 (2004)].

Chain of HDM2 protein (Q00987 whole entry): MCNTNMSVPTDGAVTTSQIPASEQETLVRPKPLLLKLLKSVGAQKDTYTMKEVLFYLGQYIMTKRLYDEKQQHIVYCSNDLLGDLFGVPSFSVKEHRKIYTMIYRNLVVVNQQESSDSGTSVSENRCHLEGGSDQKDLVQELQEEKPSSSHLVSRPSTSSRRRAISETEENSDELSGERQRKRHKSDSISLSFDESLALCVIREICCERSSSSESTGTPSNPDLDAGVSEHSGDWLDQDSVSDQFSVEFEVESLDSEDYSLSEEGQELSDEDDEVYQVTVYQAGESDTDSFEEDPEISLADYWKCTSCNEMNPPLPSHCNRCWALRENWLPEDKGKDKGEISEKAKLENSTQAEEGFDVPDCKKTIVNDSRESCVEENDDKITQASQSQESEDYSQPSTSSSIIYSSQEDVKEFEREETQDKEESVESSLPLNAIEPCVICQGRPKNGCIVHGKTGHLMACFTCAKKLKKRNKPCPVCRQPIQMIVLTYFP

| Compound | IC50 [nM] |
| --- | --- |
| COCC1c2ccc(Cl)cc2CCN1C(=O)[C@]1(Oc2csc(C(F)(F)F)c2)CCCN(C(=O)c2ncccc2C(F)(F)F)[C@@H]1CCN1CCC(CCO)CC1 (stereo partly drawn) [Compound A20, 2-(1-{2-[(2R,3S)-3-{[6-chloro-1-(methoxymethyl)-3,4-dihydroisoquinolin-2(1H)-yl]carbonyl}-1-{[3-(trifluoromethyl)pyridin-2-yl]carbonyl}-3-{[5-(trifluoromethyl)thiophen-3-yl]oxy}piperidin-2-yl]ethyl}piperidin-4-yl)ethanol] | 1 to 100 |
| COCCN1CCN(CC[C@H]2N(C(=O)c3ncccc3C(F)(F)F)CCC[C@@]2(Oc2csc(C(F)(F)F)c2)C(=O)N2CCc3cc(Cl)ccc3C2COC)CC1 (stereo partly drawn) [Compound A21, 6-chloro-2-{[(2R,3S)-2-{2-[4-(2-methoxyethyl)piperazin-1-yl]ethyl}-1-{[3-(trifluoromethyl)pyridin-2-yl]carbonyl}-3-{[5-(trifluoromethyl)thiophen-3-yl]oxy}piperidin-3-yl]carbonyl}-1-(methoxymethyl)-1,2,3,4-tetrahydroisoquinoline] | 1 to 100 |
| COCC1c2ccc(Cl)cc2CCN1C(=O)[C@]1(Oc2csc(C(F)(F)F)c2)CCCN(C(=O)c2ncccc2C(F)(F)F)[C@@H]1CCNC1CCOCC1 (stereo partly drawn) [Compound A22, N-{2-[(2R,3S)-3-{[6-chloro-1-(methoxymethyl)-3,4-dihydroisoquinolin-2(1H)-yl]carbonyl}-1-{[3-(trifluoromethyl)pyridin-2-yl]carbonyl}-3-{[5-(trifluoromethyl)thiophen-3-yl]oxy}piperidin-2-yl]ethyl}tetrahydro-2H-pyran-4-amine] | 1 to 100 |
| CCC[C@H]1N(C(=O)c2ncccc2C(F)(F)F)CCC[C@@]1(Oc1csc(C(F)(F)F)c1)C(=O)N1CCc2sc(Cl)cc2C1CCC(=O)O (stereo partly drawn) [Compound A23, 3-(2-chloro-5-{[(2R,3S)-2-propyl-1-{[3-(trifluoromethyl)pyridin-2-yl]carbonyl}-3-{[5-(trifluoromethyl)thiophen-3-yl]oxy}piperidin-3-yl]carbonyl}-4,5,6,7-tetrahydrothieno[3,2-c]pyridin-4-yl)propanoic acid] | 1 to 100 |
| CCC[C@H]1N(C(=O)c2ncccc2C(F)(F)F)CCC[C@@]1(Oc1csc(C(F)(F)F)c1)C(=O)N1CCc2sc(Cl)cc2C1CCC(N)=O (stereo partly drawn) [Compound A24, 3-(2-chloro-5-{[(2R,3S)-2-propyl-1-{[3-(trifluoromethyl)pyridin-2-yl]carbonyl}-3-{[5-(trifluoromethyl)thiophen-3-yl]oxy}piperidin-3-yl]carbonyl}-4,5,6,7-tetrahydrothieno[3,2-c]pyridin-4-yl]propanamide] | 101 to 20000 |
| CCC[C@H]1N(C(=O)c2ncccc2C(F)(F)F)CCC[C@@]1(Oc1csc(C(F)(F)F)c1)C(=O)N1CCc2sc(Cl)cc2C1CC(C)(C)C(=O)O (stereo partly drawn) [Compound A25, 3-(2-chloro-5-{[(2R,3S)-2-propyl-1-{[3-(trifluoromethyl)pyridin-2-yl]carbonyl}-3-{[5-(trifluoromethyl)thiophen-3-yl]oxy}piperidin-3-yl]carbonyl}-4,5,6,7-tetrahydrothieno[3,2-c]pyridin-4-yl)-2,2-dimethylpropanoic acid] | 1 to 100 |
| CCC[C@H]1N(C(=O)c2ncccc2C(F)(F)F)CCC[C@@]1(Oc1csc(C(F)(F)F)c1)C(=O)N1CCc2sc(Cl)cc2C1CC(C)(C)C(=O)O (stereo partly drawn) [Compound A26, 3-(2-chloro-5-{[(2R,3S)-2-propyl-1-{[3-(trifluoromethyl)pyridin-2-yl]carbonyl}-3-{[5-(trifluoromethyl)thiophen-3-yl]oxy}piperidin-3-yl]carbonyl}-4,5,6,7-tetrahydrothieno[3,2-c]pyridin-4-yl)-2,2-dimethylpropanoic acid] | 1 to 100 |
